Measurements reported in publication PMC6382696, “Drug Repurposing: The Anthelmintics Niclosamide and Nitazoxanide Are Potent TMEM16A Antagonists That Fully Bronchodilate Airways” (Frontiers in Pharmacology, 2019).

system: Wnt/β-catenin transcription; test: Wnt/β-catenin transcription TOPFlash reporter assay; type: cell-based; settings: Wnt TopFlash IC50 over TMEM16A eYFP IC50

| SMILES | IC50 Ratio, Wnt/TMEM16A |
| --- | --- |
| O=C(Nc1cccc(C(F)(F)F)c1)c1cc(Cl)ccc1O [Cpd 9] | 6.85 |
| O=C(Nc1cccc(Cl)c1)c1cc(Cl)ccc1O [Cpd 10] | 18.33 |
| O=C(Nc1ccccc1Cl)c1cc(Cl)ccc1O [Cpd 11] | 9.24 |
| O=C(Nc1ccc(Cl)cc1Cl)c1cc(Cl)ccc1O [Cpd 12] | 4.67 |
| O=C(Nc1cc(Cl)cc(Cl)c1)c1cc(Cl)ccc1O [Cpd 13] | 3.50 |
| O=C(Nc1ccc(Cl)c(Cl)c1)c1cc(Cl)ccc1O [Cpd 14] | 8.11 |
| O=C(Nc1ccc(F)cc1)c1cc(Cl)ccc1O [Cpd 16] | 15.36 |
| O=C(Nc1ccc(F)cc1F)c1cc(Cl)ccc1O [Cpd 17] | 12.97 |

system: Wnt/β-catenin transcription; test: not given; settings: ref Mook et al. (2015); read-out: Mook et al. Wnt/β-catenin TopFlash (IC50); cited from earlier work

| SMILES | IC50 [nM] |
| --- | --- |
| O=C(Nc1cccc(C(F)(F)F)c1)c1cc(Cl)ccc1O [Cpd 9] | 890 |
| O=C(Nc1cccc(Cl)c1)c1cc(Cl)ccc1O [Cpd 10] | 1650 |
| O=C(Nc1ccccc1Cl)c1cc(Cl)ccc1O [Cpd 11] | 3050 |
| O=C(Nc1ccc(Cl)cc1Cl)c1cc(Cl)ccc1O [Cpd 12] | 420 |
| O=C(Nc1cc(Cl)cc(Cl)c1)c1cc(Cl)ccc1O [Cpd 13] | 700 |
| O=C(Nc1ccc(Cl)c(Cl)c1)c1cc(Cl)ccc1O [Cpd 14] | 730 |
| O=C(Nc1ccc(F)cc1)c1cc(Cl)ccc1O [Cpd 16] | 3840 |
| O=C(Nc1ccc(F)cc1F)c1cc(Cl)ccc1O [Cpd 17] | 4020 |

molecular target: T1, hTMEM16A (abc) (Homo sapiens, UniProt Q5XXA6, DEL476-501); test: medchem TMEM16A halide-sensitive YFP assay, 22-point dose-response; type: cell-based; parameters: expressed in transfected cells; settings: TMEM16A eYFP Assay IC50, supplement; iodide as permeant anion, maximum concentration 55.6
T1 sequence (Q5XXA6 with tags, fused parts or gaps isoform Q5XXA6-5 DEL539-564): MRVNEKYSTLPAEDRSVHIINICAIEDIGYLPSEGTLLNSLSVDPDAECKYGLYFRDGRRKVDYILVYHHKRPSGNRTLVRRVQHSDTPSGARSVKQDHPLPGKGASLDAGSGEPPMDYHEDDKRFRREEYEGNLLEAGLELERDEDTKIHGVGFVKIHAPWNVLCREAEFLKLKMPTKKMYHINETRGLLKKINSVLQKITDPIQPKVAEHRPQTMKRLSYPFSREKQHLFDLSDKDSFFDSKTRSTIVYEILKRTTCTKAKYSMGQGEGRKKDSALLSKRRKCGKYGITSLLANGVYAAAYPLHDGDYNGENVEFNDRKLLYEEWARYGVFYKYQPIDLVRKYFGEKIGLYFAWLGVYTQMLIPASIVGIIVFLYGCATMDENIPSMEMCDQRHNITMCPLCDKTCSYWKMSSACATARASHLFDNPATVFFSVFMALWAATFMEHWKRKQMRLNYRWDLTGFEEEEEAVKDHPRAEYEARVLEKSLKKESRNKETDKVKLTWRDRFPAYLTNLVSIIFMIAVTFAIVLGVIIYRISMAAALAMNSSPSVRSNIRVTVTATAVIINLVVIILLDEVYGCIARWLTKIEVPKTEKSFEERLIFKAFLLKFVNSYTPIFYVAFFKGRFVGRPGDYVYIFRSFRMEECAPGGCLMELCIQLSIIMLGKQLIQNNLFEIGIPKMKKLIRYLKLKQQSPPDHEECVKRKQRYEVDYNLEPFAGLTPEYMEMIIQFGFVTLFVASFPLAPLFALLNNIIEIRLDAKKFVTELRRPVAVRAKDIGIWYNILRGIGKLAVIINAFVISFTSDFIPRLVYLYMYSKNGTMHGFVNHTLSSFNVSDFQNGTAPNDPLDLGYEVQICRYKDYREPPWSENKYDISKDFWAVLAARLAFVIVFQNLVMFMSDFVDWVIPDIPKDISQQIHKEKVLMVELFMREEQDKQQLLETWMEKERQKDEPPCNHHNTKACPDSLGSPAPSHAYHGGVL
Description: The TMEM16A HEK293T eYFP (H149Q, I153L) stable cell line for medchem support was generated by transfecting 10 μg of linearized hTMEM16A(abc) DNA constructs into HEK293T eYFP (H149Q,I153L) stable cells. The transfected cells were cultured under 200 μg/ml of hygromycin B selection for 20 days and the stable pool was single cell seeded in 96 well plate and duplicated plate were made after single cell clones were formed. YFP function assay were performed on duplicated plate and clones producing higher changes in fluorescence from the YFP assay were chosen for further expansion to form a stable cell line.
Plates were incubated for 24 h at 37°C with 5% CO2. On the assay day, medium was removed and replaced with 20 μl/well of assay buffer (Hank’s Balanced Salt Solution with 10 mM HEPES pH 7.4), 10 μl/well of 40x diluted compounds was added to assay plate and it was incubated at room temperature for 30 min, after which baseline fluorescence was read in the FLIPR instrument for 10 s. Then, 5 μl/well of a 3x trigger solution (24 mM iodide, 3 μM ionomycin in assay buffer) was added and the fluorescence kinetic trace was recorded for 2 min.

| SMILES | IC50 [nM] |
| --- | --- |
| O=C(Nc1ccc(Cl)c(Cl)c1)c1cc(Cl)ccc1O [Cpd 14] | 90 |

same assay, conditions: average, 22-point dose-response, iodide as permeant anion; read-out: TMEM16A eYFP Assay (IC50)

| SMILES | IC50 [nM] |
| --- | --- |
| O=C(Nc1ccc(Cl)cc1Cl)c1cc(Cl)ccc1O [Cpd 12] | 88 |

same assay, conditions: supplement; iodide as permeant anion, maximum concentration 55.6; read-out: TMEM16A eYFP Assay IC50

| SMILES | IC50 [nM] |
| --- | --- |
| O=C(Nc1cccc(C(F)(F)F)c1)c1cc(Cl)ccc1O [Cpd 9] | 130 |
| O=C(Nc1cccc(Cl)c1)c1cc(Cl)ccc1O [Cpd 10] | 90 |
| O=C(Nc1ccccc1Cl)c1cc(Cl)ccc1O [Cpd 11] | 330 |
| O=C(Nc1ccc(Cl)cc1Cl)c1cc(Cl)ccc1O [Cpd 12] | 90 |
| O=C(Nc1cc(Cl)cc(Cl)c1)c1cc(Cl)ccc1O [Cpd 13] | 200 |
| O=C(Nc1ccc(F)cc1)c1cc(Cl)ccc1O [Cpd 16] | 250 |
| O=C(Nc1ccc(F)cc1F)c1cc(Cl)ccc1O [Cpd 17] | 310 |
